No end group written: not given here. *: point of attachment. Myristoyl = CCCCCCCCCCCCCC(=O)*
Legend:
SK-Mel2 melanoma cells = type: cell-based; details: for inhibitory activity on SK-Mel2 melanoma cells: 48 hours of exposure, second intracellular loop peptides, comment on Table 4; for IC50: MTT assay, SK-Mel2 melanoma cells, 48 hour exposure, Table 4; for inhibitory activity of third loop peptides: comment on Table 5; for inhibition of proliferation of SK-Mel2 cells: 60 hours exposure, FIG. 6
Experimental: (§1) DU145 prostate cancer cells, PC3 prostate cancer cells, MCF7 breast cancer cells, or Mel-SK-2 melanoma cells (American Type Culture Collection, Manassas, Va.) are inoculated in 96 well plates at 200-400 cells/well density in DMEM medium containing 10% fetal bovine serum and allowed to attach for 24 hours. Cell suspension of 100 μl is used for each well. Polypeptides in 100 μl medium at 2× concentration are added the next day and kept in the CO2 incubator for 48 hours While the polypeptides are added at a final concentration between 1 nM and 10 μM, assays are performed on extra reference plates to determine the cell population density at time 0 (T0). The cells are stained with Promega Non-Radioactive Cell Proliferation Assay Kit (MTT) according to manufacture's protocol. The absorbance of the wells is determined at 544 nm by a FLUOstar/POLARstar® Galaxy MicroplateReader (BMG Labtechnologies GmbH, Germany). The assays are performed on control (C) and test (T) cells. Cellular responses are calculated from the data using the following formula: 100×[(T−T0)/(C−T0)] for T>T0 and 100×[(T−T0)/T0] for T<T0.
(§2) Polypeptides based on the second or third intracellular loop of SMO (SMOi2 or i3 polypeptides) (as shown in Table 1) are synthesized as described in Example 1 and are tested as described in Example 2 using MCF-7 breast cancer cells or SK-Mel2 melanoma cells. The IC50 of each peptide as determined by the MTT assay in SK-Mel2 melanoma cells after 48 hour exposure to the peptide is shown in Tables 4 and 5.
Peptides SMOi2-18 and SMOi2-21 are made as essentially described in Example 1 and tested as described in Example 2 using SK-Mel2 cells. Cells are exposed to polypeptides or peptidomimetics for 60 hours.

[1] = system: gastric adenocarcinoma cells; assay: Growth inhibition of gastric adenocarcinoma cells (viable cell mass); type: cell-based; details: 5 or 10 μM, FIG. 2
[2] = system: MCF-7 breast cancer cells; assay: MTT growth inhibition assay in MCF-7 breast cancer cells; type: cell-based; details: 48-hour treatment, FIG. 1 / FIG. 3
Experimental: as §1, with “The cells are stained with Promega Non-Radioactive Cell Proliferation Assay Kit (MTT) according to manufacture's protocol.” left out, “The assays are performed on control (C) and test (T) cells.” left out, “T<T0. […]” for “T<T0.”
as §2

[3] = Critical micelle concentration by WMC-77 fluorescence; type: physicochemical; details: deionized water, 25° C., WMC-77 0.4 μM
Source text: To monitor the formation of hydrophobic nanoparticles, a fluorescing imidazoacridone compound WMC-77 (5-{3-[4-(aminopropyl)-piperazin-1-yl]-propylamino}-2,10b-diaza-aceanthrylen-6-one) is used (Tarasov et al., Photochem. Photobiol. 78: 313-322 (2003)). Compounds like WMC-77 tend to enhance their intrinsic fluorescence dramatically when entering an amphiphilic environment of biological macromolecules like DNA (Tarasova et al., 2003, supra) or hydrophobic core of typical micelles (Tarasov et al., Photochem. Photobiol. 70: 568-578 (1999)). […] Atmospheric oxygen quenching is found to be unimportant, since similar values of fluorescence intensity from BIAs are obtained before and after nitrogen purging. […] Uncorrected fluorescence emission spectra are obtained at 25° C. on a Single Photon Counting Spectrofluorometer FLUOROMAX®-2 (Horiba Jobin Yvon, Edison, N.J.). […]
The increase of peptide/fluorophore ratio causes the permanent increase of WMC-77 fluorescence emission intensity, leveling of at ˜2 μM. The changes in the fluorescence signal are similar to those observed during transfer of imidazoacridones from aqueous to non-polar media such as organic solvents (Tarasov et al., 1999, supra), to the cores of classic surfactant micelles (Tarasov et al., 1999, supra) or upon binding to DNA (Tarasov et al., 2003, supra). […]

WFVVLTYAWHTSFKAL [SMOi2-15]
inhibitory activity on SK-Mel2 melanoma cells (SK-Mel2 melanoma cells): does not overcome the loss of activity
IC50 (SK-Mel2 melanoma cells): > 5000 nM

Pal-LTYAWHTSFK [SMOi2-12]
inhibitory activity on SK-Mel2 melanoma cells (SK-Mel2 melanoma cells): most potent inhibitors

Ac-GTTYQPLSGKTSYK-εPal [SMOi2-7]
inhibitory activity on SK-Mel2 melanoma cells (SK-Mel2 melanoma cells): potent inhibitors

PalRGVMTLFSIKSNHPGLLSEKA [SMO i3-2]
inhibitory activity of third loop peptides (SK-Mel2 melanoma cells): among the most potent polypeptides tested

SEKAASKINETMLRK-ε-Pal [SMO i3-12]
inhibitory activity of third loop peptides (SK-Mel2 melanoma cells): among the most potent polypeptides tested

Pal-LTYAWHTSFKALGTTYQP [SMOi2-6]
inhibitory activity on SK-Mel2 melanoma cells (SK-Mel2 melanoma cells): potent inhibitors

Pal-LTYAWHTSFKA [SMOi2-11]
inhibitory activity on SK-Mel2 melanoma cells (SK-Mel2 melanoma cells): most potent inhibitors

Ac-AKFSTHWAYTLK-εPal (all D-) [SMOi2-17]
IC50 (SK-Mel2 melanoma cells): 0.4 ± 0.1 nM

Ac-LTYAWHTSFKAL [SMOi2-9]
inhibitory activity on SK-Mel2 melanoma cells (SK-Mel2 melanoma cells): significantly reduces the inhibitory activity

PalLTYAWHTSFKAL (All D) [SMOi2-24]
inhibitory activity on SK-Mel2 melanoma cells (SK-Mel2 melanoma cells): most potent inhibitors

Ac-LLSEKAASKINETMLRK-[…]ε-Pal [SMO i3-6]
inhibitory activity of third loop peptides (SK-Mel2 melanoma cells): among the most potent polypeptides tested

Pal-LTYAWHTSFKALGTTYQPLSGKYSY [SMOi2-1]
inhibition of growth of gastric adenocarcinoma cells compared with cyclopamine [1]: as well or better than cyclopamine
inhibition of growth of MCF-7 cells [2]: inhibit the growth of MCF-7 cells

Pal-LTYAWHTSFKAL [SMOi2-8]
inhibitory activity on SK-Mel2 melanoma cells (SK-Mel2 melanoma cells): most potent inhibitors
critical micelle concentration [3]: 0.5 to 1 µM

Pal-TYAWHTSFKAL [SMOi2-10]
inhibitory activity on SK-Mel2 melanoma cells (SK-Mel2 melanoma cells): potent inhibitors

Ac-LTYAWHTSFKALGTTYQPLSGKTSYK- ε-Pal [SMOi2-4]
IC50 (SK-Mel2 melanoma cells): 1000 ± 100 nM

Ac-LAKFSTHWAYTLK-ε-Pal (all D-) [SMOi2-16]
IC50 (SK-Mel2 melanoma cells): 6 ± 0.5 nM

PalRGVMTLFSIKSNHPGLLSEKAASKINETMLR [SMO i3-1]
inhibitory activity of third loop peptides (SK-Mel2 melanoma cells): among the most potent polypeptides tested
inhibition of growth of gastric adenocarcinoma cells compared with cyclopamine [1]: as well or better than cyclopamine
inhibition of growth of MCF-7 cells [2]: most significant effect on cell growth

Myristoyl-LTYAWHTSFKAL [SMOi2-26]
inhibitory activity on SK-Mel2 melanoma cells (SK-Mel2 melanoma cells): most potent inhibitors
potency relative to palmitoyl peptide (fold less potent) (SK-Mel2 melanoma cells; myristoyl instead of palmitoyl residue): 2.5 fold

Ac-KFSTHWAYTLK- εPal (all D-) [SMOi2-20]
inhibitory activity on SK-Mel2 melanoma cells (SK-Mel2 melanoma cells): most potent inhibitors
IC50 (SK-Mel2 melanoma cells): 0.3 ± 0.1 nM

PalRGVMTLFSIKSNHPGLLS [SMO i3-8]
inhibitory activity of third loop peptides (SK-Mel2 melanoma cells): among the most potent polypeptides tested

Pal-LTYABpaHTSFKAL [SMOi2-18]
inhibitory activity on SK-Mel2 melanoma cells (SK-Mel2 melanoma cells): fairly active
inhibition of proliferation of SK-Mel2 cells (SK-Mel2 melanoma cells): even more potent than that of the polypeptide counterpart, SMOi2-8

Pal-LTYABpaHTSFKAL-Hcy-Biotin [SMOi2-21]
inhibitory activity on SK-Mel2 melanoma cells (SK-Mel2 melanoma cells): totally abolishes the activity
inhibition of proliferation of SK-Mel2 cells (SK-Mel2 melanoma cells): even more potent than that of the polypeptide counterpart, SMOi2-8

Ac-YAWHTSFKALGTTYQPLSGKTSYK- εPal [SMOi2-5]
IC50 (SK-Mel2 melanoma cells): 1000 ± 100 nM

PalLFSIKSNHPGLLSEKAASKINETMLR [SMO i3-4]
inhibitory activity of third loop peptides (SK-Mel2 melanoma cells): significantly less active

Pal-LTYAWHTSFKALGTTYQPLSGKTSYK- ε-Pal [SMOi2-23]
inhibitory activity on SK-Mel2 melanoma cells (SK-Mel2 melanoma cells): most potent inhibitors

VWFVVLTYAWHTSFKAL [SMOi2-14]
inhibitory activity on SK-Mel2 melanoma cells (SK-Mel2 melanoma cells): does not overcome the loss of activity
IC50 (SK-Mel2 melanoma cells): > 5000 nM
